Calls of active or inactive are those of the source. No cut-off for these calls is given here.
Legend:
Vitis vinifera [1] = assay: Induction of delta-viniferin accumulation in Vitis vinifera cv. Cabernet Sauvignon foliar cuttings assessed per dry weight of plant at 0.5 g/L measured after 72 hr post dose by fluorimetry; format: functional
Vitis vinifera [2] = assay: Induction of epsilon-viniferin accumulation in Vitis vinifera cv. Cabernet Sauvignon foliar cuttings assessed per dry weight of plant at 0.5 g/L measured after 24 hr post dose by fluorimetry; format: functional
Erysiphe necator [3] = assay: Fungicidal activity against Erysiphe necator infected 72 hr compound pre-treated grapevine foliar cuttings assessed as reduction in powdery mildew infection measured 14 days post fungal inoculation; format: functional; design: scale not given: the % may be the effect or the level left
Vitis vinifera [4] = assay: Increase in […] protease inhibitor gene expression in Vitis vinifera cv. Cabernet Sauvignon foliar cuttings at 0.5 g/L measured after 12 to 72 hr post dose by RTq-PCR method relative to untreated control; format: functional
Vitis vinifera [5] = assay: Induction of trans-piceid accumulation in Vitis vinifera cv. Cabernet Sauvignon foliar cuttings assessed per dry weight of plant at 0.5 g/L measured after 72 hr post dose by fluorimetry; format: functional
Vitis vinifera [6] = assay: Increase in beta-1,3- glucanase gene expression in Vitis vinifera cv. Cabernet Sauvignon foliar cuttings at 0.5 g/L measured after 12 to 24 hr post dose by RTq-PCR method relative to untreated control; format: functional
Vitis vinifera [7] = assay: Increase in phenylalanine ammonia lyase gene expression in Vitis vinifera cv. Cabernet Sauvignon foliar cuttings at 0.5 g/L measured after 6 hr post dose by RTq-PCR method relative to untreated control; format: functional
Vitis vinifera [8] = assay: Induction of trans-resveratrol accumulation in Vitis vinifera cv. Cabernet Sauvignon foliar cuttings assessed per dry weight of plant at 0.5 g/L measured after 24 to 72 hr post dose by fluorimetry; format: functional
Vitis vinifera [9] = assay: Induction of trans-stilbenes in Vitis vinifera cv. Cabernet Sauvignon foliar cuttings at 0.5 g/L measured after 20 to 80 hr post dose by fluorimetry; format: functional, organism-based
Vitis vinifera [10] = assay: Increase in […] class IV chitinase gene expression in Vitis vinifera cv. Cabernet Sauvignon foliar cuttings at 0.5 g/L measured after 6 hr post dose by RTq-PCR method relative to untreated control; format: functional
Vitis vinifera [11] = assay: Increase in polygalacturonase-inhibiting protein gene expression in Vitis vinifera cv. Cabernet Sauvignon foliar cuttings at 0.5 g/L measured after 12 to 24 hr post dose by RTq-PCR method relative to untreated control; format: functional
Vitis vinifera [12] = assay: Induction of pterostilbene accumulation in Vitis vinifera cv. Cabernet Sauvignon foliar cuttings assessed per dry weight of plant at 0.5 g/L measured after 24 to 72 hr post dose by fluorimetry; format: functional
Vitis vinifera [13] = assay: Induction of delta-viniferin accumulation in Vitis vinifera cv. Cabernet Sauvignon foliar cuttings assessed per dry weight of plant at 0.5 g/L measured after 24 hr post dose by fluorimetry; format: functional
Vitis vinifera [14] = assay: Increase in phenylalanine stilbene synthase gene expression in Vitis vinifera cv. Cabernet Sauvignon foliar cuttings at 0.5 g/L measured after 6 hr post dose by RTq-PCR method relative to untreated control; format: functional
Erysiphe necator [15] = assay: Fungicidal activity against Erysiphe necator infected 72 hr compound pre-treated grapevine leaf disks assessed as reduction in fungal colonization measured 14 days post fungal inoculation; format: functional; design: scale not given: the % may be the effect or the level left

**Q.** O=P(O)(O)CCCl [ETHEPHON] was tested. Which Activity (Vitis vinifera [1]) did it give?
**A.** 6 nmol/g

**Q.** What about the Activity (Vitis vinifera [2]) of the same compound?
**A.** 58 nmol/g

**Q.** What about the Activity (Erysiphe necator [3]) of the same compound?
**A.** 70%

**Q.** And the “fold change (FC)” value (Vitis vinifera [4])?
**A.** 9

**Q.** And the Activity (Vitis vinifera [5])?
**A.** 312 nmol/g

**Q.** And the “fold change (FC)” value (Vitis vinifera [6])?
**A.** 33

**Q.** What about the “fold change (FC)” value (Vitis vinifera [7]) of the same compound?
**A.** 10

**Q.** And the Activity (Vitis vinifera [8])?
**A.** 133 nmol/g

**Q.** And the Activity (Vitis vinifera [9])?
**A.** Active

**Q.** What about the “fold change (FC)” value (Vitis vinifera [10]) of the same compound?
**A.** 11

**Q.** What about the “fold change (FC)” value (Vitis vinifera [11]) of the same compound?
**A.** 22

**Q.** And the Activity (Vitis vinifera [12])?
**A.** 10 nmol/g

**Q.** And the Activity (Vitis vinifera [13])?
**A.** 12 nmol/g

**Q.** And the “fold change (FC)” value (Vitis vinifera [14])?
**A.** 67

**Q.** And the Activity (Erysiphe necator [15])?
**A.** 64%

Source: ChEMBL document CHEMBL3045251, “Ethephon elicits protection against Erysiphe necator in grapevine” (2008)
